pEC50, pKi: −log10 of the molar value.
Key:
[1] = biological target: T1, CB2R (Homo sapiens, UniProt P34972); conditions: cited from earlier work
[2] = biological target: GPR55 (Homo sapiens, UniProt Q9Y2T6); conditions: cited from earlier work
[3] = biological target: T1, CB2R; conditions: cited from earlier work; remark: listed apart in the source
[4] = tested on: cortical KCl induced periorbital allodynia in female rats; test: Cortical KCl induced periorbital (facial) allodynia in female rats; assay type: in vivo, rat; conditions: for reversal of periorbital allodynia / prevention of periorbital allodynia: female rats
Method: FIG. 2A-D: Cortical KCl, but not dural KCl, induces periorbital allodynia in female rats and activates cFOS. A. Cortical KCl (0.5 μL, 1M) induces significant periorbital allodynia that is not blocked by dural lidocaine (2%, 5 μl, 10-15 min) pretreatment. […] C. Comparing areas under the curves for A and B confirmed that cortical KCl, regardless of dural lidocaine, induces significant periorbital allodynia that is not replicated by dural application of KCl. D. Cortical KCl allodynia increases cortical cFos 90 min post-injection (n=3-4/group). Data are mean±SEM (n=8-11), one or two-way ANOVA, *p<0.05: **<0.01: ***p<0.001: dotted line-naïve.
FIG. 8A-B: MAGL inhibition alleviates cortical KCl induced periorbital allodynia in female rats. […] Data are expressed mean±SEM (n=8-12), two-way RMANOVA Bonferroni, *p<0.051 **p<0.01: ****p<0.0001.
FIG. 9A-B: ABHD6 inhibition alleviates cortical KCl induced periorbital allodynia in female rats. […] Data are expressed mean±SEM (n=8-12), two-way RMANOVA Bonferroni, *p<0.05: **p<0.01: ***p<0.001.
FIG. 10A-B: Dual MAGL/ABHD6 inhibition alleviates cortical KCl induced periorbital allodynia in female rats. […] Data are expressed mean±SEM (n=7-14), two-way RMANOVA, Bonferroni, *p<0.05: **p<0.01: ****p<0.0001.
(§1) FIG. 13A-B: MAGL inhibition and cannabinoid receptor selectivity. Injection of CB1R antagonist, rimonabant (1 mg/kg, IP) prior to KCl shifted onset of MJN110 (10 mg/kg, IP) by 30 min. CB2R antagonist, SR144528 (1 mg/kg, IP), injected prior to KCl blocked the anti-allodynic effect of MJN110. Data are expressed mean±SEM (n=9), one- and two-way ANOVA, *p<0.05, ***p<0.001, ****p<0.0001.
Data are expressed mean±SEM (n=8-12), two-way RMANOVA Bonferroni, *p<0.051 **p<0.01: ****p<0.0001.
Data are expressed mean±SEM (n=8-12), two-way RMANOVA Bonferroni, *p<0.05: **p<0.01: ***p<0.001.
Data are expressed mean+SEM (n=7-14), two-way RMANOVA, Bonferroni, *p<0.05: **p<0.01: ****p<0.0001.
as §1, with “Injection” for “FIG. 13A-B: MAGL inhibition and cannabinoid receptor selectivity. Injection”, “mean #SEM” for “mean±SEM”

[5] = tested on: migraine pain; conditions: preclinical, cited from earlier work

T1 sequence (P34972 whole entry): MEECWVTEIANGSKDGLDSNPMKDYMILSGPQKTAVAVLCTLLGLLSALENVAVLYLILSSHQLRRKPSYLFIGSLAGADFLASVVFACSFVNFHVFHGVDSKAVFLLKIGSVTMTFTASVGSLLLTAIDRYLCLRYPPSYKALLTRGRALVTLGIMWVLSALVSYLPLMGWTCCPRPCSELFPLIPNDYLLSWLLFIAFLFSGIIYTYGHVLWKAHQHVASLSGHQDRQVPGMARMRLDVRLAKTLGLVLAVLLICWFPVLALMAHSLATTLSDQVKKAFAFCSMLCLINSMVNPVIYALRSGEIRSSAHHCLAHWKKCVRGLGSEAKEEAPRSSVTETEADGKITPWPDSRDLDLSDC
GPR55, sequence (Q9Y2T6 whole entry, species assumed): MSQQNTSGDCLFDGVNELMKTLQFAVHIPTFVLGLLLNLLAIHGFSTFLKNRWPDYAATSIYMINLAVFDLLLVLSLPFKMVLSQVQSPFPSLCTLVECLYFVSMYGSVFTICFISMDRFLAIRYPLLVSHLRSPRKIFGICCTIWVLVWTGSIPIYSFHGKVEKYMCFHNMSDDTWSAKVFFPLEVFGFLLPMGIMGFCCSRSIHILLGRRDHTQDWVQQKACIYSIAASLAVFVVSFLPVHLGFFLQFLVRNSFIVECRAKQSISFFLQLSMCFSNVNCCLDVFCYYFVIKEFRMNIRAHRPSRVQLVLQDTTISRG

CCCCC/C=C\C/C=C\C/C=C\C/C=C\CCCC(=O)OC(CO)CO [2AG, 2-arachidonoylglycerol]
pEC50 [1]: 8.40
Emax [1]: 34%
pEC50 [2]: 6.21
pKi [3]: 5.85 to 6.76

O=C(N1CCCCC1c1ccccc1)n1cc(-c2ccc(-c3cccc(CO)c3)cc2)nn1 (centres unmarked) [KT182, (4-(3′-(hydroxymethyl)-[1,1′-biphenyl]-4-yl)-1H-1,2,3-triazol-1-yl)(2-phenylpiperidin-1-yl) methanone]
reversal of periorbital allodynia ([4]; KT182 2 mg/kg IP after cortical KCl (0.5 μL)): reverses
prevention of periorbital allodynia ([4]; KT182 2 mg/kg IP before cortical KCl (0.5 μL)): prevents

SR144528
effect on the anti-allodynic effect of MJN110 ([4]; SR144528 1 mg/kg IP prior to KCl, MJN110 10 mg/kg IP): blocked

CCCCCc1cc(O)c2c(c1)OC(C)(C)[C@@H]1CCC(C)=C[C@@H]21 [THC]
reduction of migraine pain ([5]; acute): effective
migraine-like pain ([5]; repeated exposure): increases

CCN(CC)CC(=O)Nc1c(C)cccc1C [lidocaine]
block of cortical KCl induced periorbital allodynia ([4]; dural lidocaine 2%, 5 μl, 10-15 min pretreatment, cortical KCl 0.5 μL, 1M): not blocked
effect on periorbital allodynia after dural KCl ([4]; lidocaine pretreatment, dural KCl 5 uL, 1M): no effect

O=C(ON1C(=O)CCC1=O)N1CCN(C(c2ccc(Cl)cc2)c2ccc(Cl)cc2)CC1 [MJN110, 2,5-dioxopyrrolidin-1-yl 4-(bis(4-chlorophenyl)methyl)piperazine-1-carboxylate]
reversal of periorbital allodynia ([4]; MJN110 10 mg/kg IP after cortical KCl (0.5 μL)): reverses
prevention of periorbital allodynia ([4]; MJN110 10 mg/kg IP before cortical KCl (0.5 μL)): prevents

Cc1c(C(=O)NN2CCCCC2)nn(-c2ccc(Cl)cc2Cl)c1-c1ccc(Cl)cc1 [rimonabant]
shift of onset of MJN110 effect ([4]; rimonabant 1 mg/kg IP prior to KCl, MJN110 10 mg/kg IP): 30 min
